Values after ≈ are worked out from the molar mass of the structure shown.
Tests used:
Format in all cases: functional
Candida albicans [1] = assay: Inhibitory activity against the Candida albicans (40 clinical isolates), determined at pH-7.2
Candida [2] = assay: Percent resistance against all Candida. species (40 clinical isolates) at 256 micro g/mL (pH=7.2), activity is expressed as R%.
Candida albicans [3] = assay: Inhibitory activity against Candida albicans (40 clinical isolates), determined at pH-7.2
Candida [4] = assay: Inhibitory activity against Candida. species. (40 clinical isolates), determined at pH-5.8
Candida albicans [5] = assay: Inhibitory activity against the Candida albicans (40 clinical isolates), determined at pH-5.8
Candida [6] = assay: Resistance against all Candida. species (40 clinical isolates) at 256 micro g/mL (pH=5.8). Activity is expressed as R%.
Candida [7] = assay: Inhibitory activity against Candida. species (40 clinical isolates), determined at pH-5.8
Candida albicans [8] = assay: Percent resistance against Candida albicans (40 clinical isolates) at 256 micro g/mL (pH=5.8), activity is expressed as R%.
Candida [9] = assay: Inhibitory activity against Candida. species. (40 clinical isolates), determined at pH-7.2
Candida [10] = assay: 50% inhibitory activity against the Candida. species (40 clinical isolates) was determined at pH-7.2
Candida [11] = assay: 90% inhibitory activity against Candida. species (40 clinical isolates) determined at pH-7.2
Candida albicans [12] = assay: 50% inhibitory activity against Candida albicans (40 clinical isolates) determined at pH-7.2; details: Candida albicans; read-out: MIC50
Candida albicans [13] = assay: Inhibitory activity against Candida albicans (40 clinical isolates), determined at pH-5.8
Candida albicans [14] = assay: Resistance against Candida. albicans (40 clinical isolates) at 256 ug/mL (pH=7.2), activity is expressed as R%.
Candida albicans [15] = assay: 50% inhibitory activity against Candida albicans (40 clinical isolates) determined at pH-5.8

| Compound | MIC90 (Candida albicans [1]) [µg/mL] | R (Candida [2]) [%] | MIC (Candida albicans [3]) [µg/mL] | MIC (Candida [4]) [µg/mL] | MIC90 (Candida albicans [5]) [µg/mL] | R (Candida [6]) [%] | MIC50 (Candida [7]) [µg/mL] | MIC90 (Candida [7]) [µg/mL] | R (Candida albicans [8]) [%] | MIC (Candida [9]) [µg/mL] | MIC50 (Candida [10]) [µg/mL] | MIC90 (Candida [11]) [µg/mL] | MIC50 (Candida albicans [12]) [µg/mL] | MIC (Candida albicans [13]) [µg/mL] | R (Candida albicans [14]) [%] | MIC50 (Candida albicans [15]) [µg/mL] |
| --- | --- | --- | --- | --- | --- | --- | --- | --- | --- | --- | --- | --- | --- | --- | --- | --- |
| Fc1ccc(C(c2c[nH]cc2-c2ccc(Cl)cc2)n2ccnc2)cc1 (stereo not given) | 32 (≈ 91 µM) | 0 | 19.2 (≈ 54.6 µM) | 26.6 (≈ 75.6 µM) | 64 (≈ 182 µM) | 0 | 32 (≈ 91 µM) | 32 (≈ 91 µM) | 0 | 31.8 (≈ 90.4 µM) | 32 (≈ 91 µM) | 64 (≈ 182 µM) | 16 (≈ 45.5 µM) | 15.4 (≈ 43.8 µM) | 0 | 32 (≈ 91 µM) |
| Cc1ccc(C(c2c[nH]cc2-c2ccc(Cl)cc2)n2ccnc2)cc1 (stereo not given) | 32 (≈ 92 µM) | 0 | 18.9 (≈ 54.3 µM) | 20.4 (≈ 58.6 µM) | 32 (≈ 92 µM) | 0 | 16 (≈ 46 µM) | 32 (≈ 92 µM) | 0 | 23.1 (≈ 66.4 µM) | 16 (≈ 46 µM) | 32 (≈ 92 µM) | 16 (≈ 46 µM) | 12.3 (≈ 35.4 µM) | 0 | 16 (≈ 46 µM) |
| Clc1ccc(-c2c[nH]cc2C(c2ccccc2)n2ccnc2)c(Cl)c1 (stereo not given) | 16 (≈ 43.4 µM) | 0 | 5.4 (≈ 14.7 µM) | 23.5 (≈ 63.8 µM) | 16 (≈ 43.4 µM) | 0 | 32 (≈ 86.9 µM) | 32 (≈ 86.9 µM) | 0 | 16.6 (≈ 45.1 µM) | 16 (≈ 43.4 µM) | 32 (≈ 86.9 µM) | 2 (≈ 5.43 µM) | 8.4 (≈ 22.8 µM) | 0 | 4 (≈ 10.9 µM) |
| Nc1ccc(C(c2c[nH]cc2-c2ccccc2Cl)n2ccnc2)cc1 (stereo not given) | 256 (≈ 734 µM) | 50 | 131 (≈ 376 µM) | 201 (≈ 576 µM) | 256 (≈ 734 µM) | 50 | 256 (≈ 734 µM) | 256 (≈ 734 µM) | 0 | > 222 | 256 (≈ 734 µM) | 256 (≈ 734 µM) | 64 (≈ 183 µM) | 100 (≈ 288 µM) | 0 | 64 (≈ 183 µM) |
| O=[N+]([O-])c1ccc(C(c2c[nH]cc2-c2ccccc2Cl)n2ccnc2)cc1 (stereo not given) | 256 (≈ 676 µM) | 30 | > 91.6 | 48.4 (≈ 128 µM) | 64 (≈ 169 µM) | 0 | 64 (≈ 169 µM) | 64 (≈ 169 µM) | 0 | > 200 | 64 (≈ 169 µM) | > 256 | 32 (≈ 84.5 µM) | > 50.7 | 15 | 32 (≈ 84.5 µM) |
